Measurements reported in patent publication US9789111B2, “Casein kinase 1δ (CK 1δ) inhibitors” (Electrophoretics Limited, priority 2010, dated 2017).

Tests used:
[1] = system: Tau phosphorylated at Threonine 231 in SH-SY5Y-TMHT cells; test: Western Blot of Tau phosphorylated at Threonine 231; type: cell-based, human; details: for detectable level of pT231 in Tau protein: 10 μM, Western Blot; for phosphorylation of Thr 231 within Tau proteins: FIG. 5
Experimental: (§1) SH-SY5Y-TMHT cells are kept in culture medium (DMEM medium, 10% FCS, 1% NEAA, 1% L-Glutamine, 100 μg/ml Gentamycin, 300 μg/ml Geneticin G-418) for 2 days until 80-90% confluency. Cells are then differentiated in culture medium supplemented with 10 μM retinoic acid (RA) for 7 days changing medium every 2 to 3 days. Differentiated cells are seeded onto 6-well plates and 96-well plates at a cell density of 1.25×10^6 and 8×10^5 cells per well, respectively. On day 8 post-differentiation, the test compounds, reference compounds and vehicle control were added to the culture medium. After 6 h of compound exposure one plate of cells is subjected to a MTT assay to evaluate the effect of test and reference items on cell viability. Remaining wells are washed once with cold PBS and harvested in 300 μl RIPA-Buffer [50 mM Tris pH 7.4, 1% Nonident P40, 0.25% Na-deoxy-cholate, 150 mM NaCl, 1 mM EDTA, 1 μM NaF, 1 μM Na-ortho-vanadate, 80 mM Glycerophosphate, supplemented with freshly added protease (Calbiochem) and phosphatase (Sigma) inhibitor cocktail]. The cell suspension is transferred into a 1.5 ml tube and additionally lysed by sonication on ice. An aliquot of 20 μl is taken for the determination of the protein concentration (BCA assay). Subsequently, the lysates are snap frozen and stored at −80° C. until shipment.
(§2) Lysates of treated cells were prepared in Laemmli buffer and 10 μg loaded into each lane of a 10% Nu-PAGE gel (Invitrogen, UK). Samples were run until the coomassie blue dye fromt was within 1 cm of the bottom of the gel. The separated proteins were transferred onto nitrocellulose and blots developed using antibodies specific for total tau (Polyclonal Rabbit Anti-Human Tau, Dako, UK (cat # A0024)) and phopho-Threonine 231 (Tau (Phospho-Thr231) Antibody, Signalway Antibody, USA (cat # 11110)) respectively. In each case the bound antibody was detected using ECL Rabbit IgG, HRP-Linked (from donkey) (GE Healthcare, UK (cat # NA934))

[2] = system: total Tau in SH-SY5Y-TMHT cells; test: Western Blot of total Tau; type: cell-based, human; details: 10 μM
Experimental: as §1, §2

FGFR1 = FGFR1 (Homo sapiens, UniProt P11362); test: kinase inhibition assay panel; type: biochemical
FGFR1, sequence (P11362 22-822, species assumed): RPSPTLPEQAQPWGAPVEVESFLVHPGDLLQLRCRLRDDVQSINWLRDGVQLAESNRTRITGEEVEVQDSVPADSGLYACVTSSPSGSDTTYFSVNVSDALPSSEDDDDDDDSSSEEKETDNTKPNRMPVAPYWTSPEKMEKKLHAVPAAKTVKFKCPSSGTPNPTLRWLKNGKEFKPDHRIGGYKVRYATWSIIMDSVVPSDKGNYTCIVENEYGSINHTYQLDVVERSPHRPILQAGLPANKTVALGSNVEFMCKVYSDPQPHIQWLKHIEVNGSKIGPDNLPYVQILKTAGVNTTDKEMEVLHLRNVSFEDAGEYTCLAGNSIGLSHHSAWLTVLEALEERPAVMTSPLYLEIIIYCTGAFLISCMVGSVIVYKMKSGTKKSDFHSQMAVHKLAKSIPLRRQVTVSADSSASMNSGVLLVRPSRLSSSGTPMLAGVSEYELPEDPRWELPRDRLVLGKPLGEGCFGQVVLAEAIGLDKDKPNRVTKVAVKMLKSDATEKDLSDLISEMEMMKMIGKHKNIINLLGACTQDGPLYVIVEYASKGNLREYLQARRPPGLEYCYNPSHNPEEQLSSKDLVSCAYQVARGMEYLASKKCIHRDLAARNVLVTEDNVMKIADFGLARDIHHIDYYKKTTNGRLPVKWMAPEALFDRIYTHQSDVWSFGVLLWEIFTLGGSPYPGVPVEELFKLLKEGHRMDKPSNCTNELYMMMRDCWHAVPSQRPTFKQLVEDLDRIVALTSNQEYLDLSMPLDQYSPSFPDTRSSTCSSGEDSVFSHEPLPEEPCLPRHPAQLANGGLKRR

PKCb2 = PKCb2 (Homo sapiens, UniProt P05771); test: kinase inhibition assay panel; type: biochemical
Experimental: (§3) Base Reaction buffer; 20 mM Hepes (pH 7.5), 10 mM MgCl2, 1 mM EGTA, 0.02% Brij35, 0.02 mg/ml BSA, 0.1 mM Na3VO4, 2 mM DTT, 1% DMSO
(§4) It should be noted that required cofactors are added individually to each kinase reaction.
(§5) • 1. Prepare indicated substrate in freshly prepared Base Reaction Buffer as described above • 2. Deliver any required cofactors to the substrate solution • 3. Deliver indicated kinase into the substrate solution and gently mix • 4. Deliver compounds in DMSO into the kinase reaction mixture • 5. Deliver ^33P-ATP (specific activity 0.01 μCi/μl final) into the reaction mixture to initiate the reaction • 6. Incubate kinase reaction for 120 min. at room temperature • 7. Reactions are spotted onto P81 ion exchange paper (Whatman #3698-915) • 8. Wash filters extensively in 0.75% Phosphoric acid Kinase Information: • CK1δ—Genbank Accession # NP_620693 • Recombinant human full-length construct. GST-tagged, expressed in insect cells. • Final concentration in assay=4 nM • Substrate: CK1tide • Substrate sequence: [KRRRAL[pS]VASLPGL] • Final substrate concentration in assay=20 μM • It should be noted that no additional cofactors are added to the reaction mixture.

CDK5/p25 = CDK5/p25 (Homo sapiens, UniProt Q00535); test: kinase inhibition assay panel; type: biochemical
Experimental: as §3, §4, §5

ABL2/ARG = ABL2/ARG (Homo sapiens, UniProt P42684); test: kinase inhibition assay panel; type: biochemical
Experimental: as §3, §4, §5

TNIK = TNIK (Homo sapiens, UniProt Q9UKE5); test: kinase inhibition assay panel; type: biochemical
TNIK, sequence (Q9UKE5 whole entry, species assumed): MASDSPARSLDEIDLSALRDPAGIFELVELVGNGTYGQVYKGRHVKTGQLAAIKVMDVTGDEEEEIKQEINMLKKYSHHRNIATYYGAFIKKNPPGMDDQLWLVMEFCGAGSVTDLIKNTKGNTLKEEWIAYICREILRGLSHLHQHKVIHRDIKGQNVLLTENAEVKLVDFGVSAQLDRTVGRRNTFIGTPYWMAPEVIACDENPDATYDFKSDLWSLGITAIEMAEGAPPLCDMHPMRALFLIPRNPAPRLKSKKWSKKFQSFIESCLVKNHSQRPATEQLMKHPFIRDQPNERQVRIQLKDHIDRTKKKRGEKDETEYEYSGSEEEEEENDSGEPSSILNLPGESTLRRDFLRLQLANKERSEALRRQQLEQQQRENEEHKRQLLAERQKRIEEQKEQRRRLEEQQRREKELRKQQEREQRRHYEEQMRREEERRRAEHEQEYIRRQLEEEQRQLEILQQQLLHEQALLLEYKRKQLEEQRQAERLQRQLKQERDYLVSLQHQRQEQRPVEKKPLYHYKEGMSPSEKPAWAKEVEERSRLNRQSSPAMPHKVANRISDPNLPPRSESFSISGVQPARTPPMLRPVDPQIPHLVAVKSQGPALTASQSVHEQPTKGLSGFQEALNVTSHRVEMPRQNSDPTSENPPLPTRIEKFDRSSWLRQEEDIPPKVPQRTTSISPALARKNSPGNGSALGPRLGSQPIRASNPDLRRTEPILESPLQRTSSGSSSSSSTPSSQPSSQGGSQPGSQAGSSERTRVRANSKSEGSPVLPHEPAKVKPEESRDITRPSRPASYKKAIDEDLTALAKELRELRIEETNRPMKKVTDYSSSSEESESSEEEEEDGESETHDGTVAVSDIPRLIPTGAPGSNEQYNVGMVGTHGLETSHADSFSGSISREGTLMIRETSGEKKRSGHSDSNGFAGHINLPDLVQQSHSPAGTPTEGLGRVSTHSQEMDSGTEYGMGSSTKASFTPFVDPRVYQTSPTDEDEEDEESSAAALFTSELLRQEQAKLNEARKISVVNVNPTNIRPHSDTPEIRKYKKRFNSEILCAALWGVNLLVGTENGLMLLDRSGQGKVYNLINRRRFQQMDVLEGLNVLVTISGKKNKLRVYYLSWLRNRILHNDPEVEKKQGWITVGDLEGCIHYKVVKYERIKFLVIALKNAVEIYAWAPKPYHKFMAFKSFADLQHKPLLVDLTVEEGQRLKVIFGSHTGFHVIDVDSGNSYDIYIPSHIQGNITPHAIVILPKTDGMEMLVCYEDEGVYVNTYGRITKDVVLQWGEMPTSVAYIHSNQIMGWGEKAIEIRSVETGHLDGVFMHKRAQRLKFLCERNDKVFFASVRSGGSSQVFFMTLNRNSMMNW
Experimental: as §3, §4, §5

GSK3b = GSK3b (Homo sapiens, UniProt P49841); test: kinase inhibition assay panel; type: biochemical
GSK3b, sequence (P49841 whole entry, species assumed): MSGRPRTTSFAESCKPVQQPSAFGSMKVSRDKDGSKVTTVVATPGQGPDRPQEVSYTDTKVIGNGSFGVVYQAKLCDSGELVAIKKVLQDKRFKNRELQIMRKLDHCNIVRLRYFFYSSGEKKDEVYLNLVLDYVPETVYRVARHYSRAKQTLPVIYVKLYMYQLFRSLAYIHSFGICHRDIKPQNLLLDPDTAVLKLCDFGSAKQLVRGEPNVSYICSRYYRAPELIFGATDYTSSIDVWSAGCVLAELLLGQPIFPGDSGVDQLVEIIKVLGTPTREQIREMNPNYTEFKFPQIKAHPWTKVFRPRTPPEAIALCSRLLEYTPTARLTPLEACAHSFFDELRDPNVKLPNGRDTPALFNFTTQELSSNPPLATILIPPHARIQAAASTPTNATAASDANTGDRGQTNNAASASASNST
Experimental: as §3, §4, §5

LCK = LCK (Homo sapiens, UniProt P06239); test: kinase inhibition assay panel; type: biochemical
LCK, sequence (P06239 whole entry, species assumed): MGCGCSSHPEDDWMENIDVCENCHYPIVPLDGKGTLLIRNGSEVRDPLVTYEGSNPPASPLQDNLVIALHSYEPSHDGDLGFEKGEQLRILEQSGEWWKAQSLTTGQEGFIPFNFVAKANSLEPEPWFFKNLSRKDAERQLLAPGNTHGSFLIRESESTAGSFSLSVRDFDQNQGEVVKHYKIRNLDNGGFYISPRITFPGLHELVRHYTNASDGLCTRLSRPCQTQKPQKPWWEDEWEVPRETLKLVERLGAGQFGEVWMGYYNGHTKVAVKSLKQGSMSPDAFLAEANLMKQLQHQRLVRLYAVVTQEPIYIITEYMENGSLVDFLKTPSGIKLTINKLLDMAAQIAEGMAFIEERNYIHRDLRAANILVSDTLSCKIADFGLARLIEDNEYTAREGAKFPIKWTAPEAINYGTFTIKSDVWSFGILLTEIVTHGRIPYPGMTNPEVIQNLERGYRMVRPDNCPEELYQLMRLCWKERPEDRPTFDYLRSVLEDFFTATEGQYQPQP
Experimental: as §3, §4, §5

PKCa = PKCa (Homo sapiens, UniProt P17252); test: kinase inhibition assay panel; type: biochemical
Experimental: as §3, §4, §5

MSK1/RPS6KA5 = MSK1/RPS6KA5 (Homo sapiens, UniProt O75582); test: kinase inhibition assay panel; type: biochemical
MSK1/RPS6KA5, sequence (O75582 whole entry): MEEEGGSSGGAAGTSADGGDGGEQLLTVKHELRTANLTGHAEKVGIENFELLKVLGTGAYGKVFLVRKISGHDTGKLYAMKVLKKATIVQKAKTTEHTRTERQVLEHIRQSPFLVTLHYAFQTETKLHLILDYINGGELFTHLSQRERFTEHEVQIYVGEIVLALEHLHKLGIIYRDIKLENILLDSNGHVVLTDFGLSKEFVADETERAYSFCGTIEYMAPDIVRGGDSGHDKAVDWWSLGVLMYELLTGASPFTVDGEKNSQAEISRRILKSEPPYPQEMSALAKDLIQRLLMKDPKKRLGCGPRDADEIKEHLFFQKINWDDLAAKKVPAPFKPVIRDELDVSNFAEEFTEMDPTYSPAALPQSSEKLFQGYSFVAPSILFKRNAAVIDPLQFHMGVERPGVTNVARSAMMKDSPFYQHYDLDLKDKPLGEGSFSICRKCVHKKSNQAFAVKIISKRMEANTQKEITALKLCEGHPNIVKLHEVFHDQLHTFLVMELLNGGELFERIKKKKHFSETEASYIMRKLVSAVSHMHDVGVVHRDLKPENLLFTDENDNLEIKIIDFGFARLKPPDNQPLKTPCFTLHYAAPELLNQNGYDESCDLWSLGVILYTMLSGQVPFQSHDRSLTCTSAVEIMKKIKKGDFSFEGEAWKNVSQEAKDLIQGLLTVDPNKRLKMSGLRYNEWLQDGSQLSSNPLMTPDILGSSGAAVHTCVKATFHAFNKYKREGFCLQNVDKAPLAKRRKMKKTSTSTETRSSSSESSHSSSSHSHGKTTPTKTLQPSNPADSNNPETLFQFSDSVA
Experimental: as §3, §4, §5

HGK/MAP4K4 = HGK/MAP4K4 (Homo sapiens, UniProt O95819); test: kinase inhibition assay panel; type: biochemical
Experimental: as §3, §4, §5

JNK2 = JNK2 (Homo sapiens, UniProt P45984); test: kinase inhibition assay panel; type: biochemical
JNK2, sequence (P45984 whole entry, species assumed): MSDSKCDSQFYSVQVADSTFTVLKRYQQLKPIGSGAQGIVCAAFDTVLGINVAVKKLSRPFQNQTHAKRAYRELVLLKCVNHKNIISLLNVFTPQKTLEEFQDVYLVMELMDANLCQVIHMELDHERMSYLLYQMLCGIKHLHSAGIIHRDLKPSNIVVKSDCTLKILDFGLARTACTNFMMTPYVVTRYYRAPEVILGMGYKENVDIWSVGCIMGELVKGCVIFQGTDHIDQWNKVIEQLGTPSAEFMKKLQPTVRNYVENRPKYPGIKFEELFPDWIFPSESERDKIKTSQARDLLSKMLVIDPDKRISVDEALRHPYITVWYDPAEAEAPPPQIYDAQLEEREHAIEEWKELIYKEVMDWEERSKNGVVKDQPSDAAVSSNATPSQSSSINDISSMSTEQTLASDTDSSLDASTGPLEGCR
Experimental: as §3, §4, §5

PDK1/PDPK1 = molecular target: T1, PDK1/PDPK1 (Homo sapiens, UniProt O15530); test: kinase inhibition assay panel; type: biochemical
T1 sequence (O15530 1-556): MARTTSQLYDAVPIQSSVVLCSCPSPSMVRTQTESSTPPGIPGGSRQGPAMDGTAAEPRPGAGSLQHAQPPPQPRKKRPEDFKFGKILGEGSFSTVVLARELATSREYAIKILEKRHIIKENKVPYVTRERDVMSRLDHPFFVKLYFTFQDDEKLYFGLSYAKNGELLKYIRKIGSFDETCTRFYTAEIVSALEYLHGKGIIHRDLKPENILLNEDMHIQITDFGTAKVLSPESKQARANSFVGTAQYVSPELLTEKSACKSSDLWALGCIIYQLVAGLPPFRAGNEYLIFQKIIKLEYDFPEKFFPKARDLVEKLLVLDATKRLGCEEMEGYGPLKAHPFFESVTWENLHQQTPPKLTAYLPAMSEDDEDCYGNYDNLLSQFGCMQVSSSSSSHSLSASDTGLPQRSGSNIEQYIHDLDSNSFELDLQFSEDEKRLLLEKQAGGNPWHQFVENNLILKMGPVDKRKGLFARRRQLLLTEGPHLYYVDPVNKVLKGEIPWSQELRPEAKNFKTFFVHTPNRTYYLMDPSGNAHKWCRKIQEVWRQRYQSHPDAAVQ
Experimental: as §3, §4, §5

c-SRC = c-SRC (Homo sapiens, UniProt P12931); test: kinase inhibition assay panel; type: biochemical
Experimental: as §3, §4, §5

ROCK1 = ROCK1 (Homo sapiens, UniProt Q13464); test: kinase inhibition assay panel; type: biochemical
Experimental: as §3, §4, §5

PIM3 = PIM3 (Homo sapiens, UniProt Q86V86); test: kinase inhibition assay panel; type: biochemical
Experimental: as §3, §4, §5

| SMILES | detectable level of pT231 in Tau protein [1] | phosphorylation of Thr 231 within Tau proteins [1] | detectable levels of total Tau [2] | inhibition of FGFR1 (FGFR1) | inhibition of PKCb2 (PKCb2) | inhibition of CDK5/p25 (CDK5/p25) | inhibition of ABL2/ARG (ABL2/ARG) | inhibition of TNIK (TNIK) | inhibition of GSK3b (GSK3b) | inhibition of LCK (LCK) | inhibition of PKCa (PKCa) | inhibition of MSK1/RPS6KA5 (MSK1/RPS6KA5) | inhibition of HGK/MAP4K4 (HGK/MAP4K4) | inhibition of JNK2 (JNK2) | inhibition of PDK1/PDPK1 (PDK1/PDPK1) | inhibition of c-SRC (c-SRC) | inhibition of ROCK1 (ROCK1) | inhibition of PIM3 (PIM3) |
| --- | --- | --- | --- | --- | --- | --- | --- | --- | --- | --- | --- | --- | --- | --- | --- | --- | --- | --- |
| Nc1ncc(-c2nc3ccccc3o2)c(-c2ccncc2)n1 [Compound 324, 5-(1,3-benzoxazol-2-yl)-4-(pyridin-4-yl)pyrimidin-2-amine] | reduced the detectable level of pT231 | inhibit phosphorylation | no significant difference | lower than 40% | lower than 40% | lower than 40% | lower than 40% | lower than 40% | lower than 40% | lower than 40% | lower than 40% | lower than 40% | lower than 40% | lower than 40% | lower than 40% | lower than 40% | lower than 40% | lower than 40% |
| NC(=O)c1c(N)c(C(=O)c2ccc(F)cc2)n2ccccc12 [Compound 987, 2-amino-3-[(4-fluorophenyl)carbonyl]indolizine-1-carboxamide] | reduced the detectable level of pT231 | inhibit phosphorylation | no significant difference | lower than 40% | lower than 40% | lower than 40% | lower than 40% | lower than 40% | lower than 40% | lower than 40% | lower than 40% | lower than 40% | lower than 40% | lower than 40% | lower than 40% | lower than 40% | lower than 40% | lower than 40% |
